From patent US7722893B2, “Use of substitute 2,4-bis (alkylamino) pyrimidines or quinzolines as antimicrobials” (Ciba Specialty Chemicals Corporation, priority 2003, dated 2010)

Columns and labels:
[1] = tested on: Aspergillus niger ATCC 6275; experiment: MIC of a broadened organism spectrum (agar); format: cell-based; conditions: Sabouraud 4% glucose agar, 3 days at 28° C.; for MIC: ATCC6275, 72 h, read-out: minimum inhibiting concentration MIC
Source text: (§1) Determination of the Minimum Inhibiting Concentration MIC [ppm] of a Broadened Organism Spectrum
(§2) • Medium: Casein/soybean flour peptone agar (Merck) • *Sabouraud 4% glucose agar (Merck) • Dilution medium: sterile 0.85% NaCl solution • Test organisms: Staphylococcus aureus ATCC 6853 and 9144 • Staphylococcus epidermidis ATCC 12228 • C. xerosis ATCC 373 ** • C. minutissimum ATCC 23348 • Proplonibacterium acnes ATCC 6919 • Escherichia coli ATCC 10536 and NCTC 8196 • Proteus vulgaris ATCC 6896 • Klebsiella pneumoniae ATCC 4352 • Salmonella choleraesuis ATCC 9184 • Pseudomonas aeruginosa ATCC 15442 • *Candida albicans ATCC 10231 • *Aspergillus niger ATCC 6275 • Incubation: 24 hours at 37° C. • *3 days at 28° C. • Test solution: 1% stock solutions of all the test substances in a suitable solvent are prepared and diluted in serial dilutions (1:10, 1:100 and 1:1000 dilution), where possible diluted to such an extent that the end concentrations in agar are from 500 ppm to 10 ppm. Test principle:
(§3) 0.3 ml of the dilution stage in question is mixed with 15 ml of still-liquid nutrient medium.
(§4) When the nutrient substrate has solidified, 10 μl portions of a suitable organism dilution of the test strains in 0.85% NaCl solution are spotted onto the agar medium: […]

[2] = tested on: C. minutissimum ATCC 23348; experiment: MIC of a broadened organism spectrum (agar); format: cell-based; conditions: 3 days incubation (Table 3a); for MIC: Corynebacterium minutissimum, ATCC23348, 72 h, read-out: minimum inhibiting concentration MIC
Source text: as §1, §2, §3, §4

[3] = tested on: C. xerosis ATCC 373; experiment: MIC of a broadened organism spectrum (agar); format: cell-based; conditions: 3 days incubation; for MIC: Corynebacterium xerosis, ATCC373, 72 h, read-out: minimum inhibiting concentration MIC
Source text: as §1, §2, §3, §4

[4] = tested on: Candida albicans ATCC 10231; experiment: MIC of a broadened organism spectrum (agar); format: cell-based; conditions: Sabouraud 4% glucose agar, 3 days at 28° C.; for MIC: ATCC10231, 72 h, read-out: minimum inhibiting concentration MIC
Source text: as §1, §2, §3, §4

[5] = tested on: Escherichia coli ATCC 10536; experiment: MIC of a broadened organism spectrum (agar); format: cell-based; conditions: for MIC: ATCC10536, 24 hours at 37° C., read-out: minimum inhibiting concentration MIC
Source text: as §1, §2, §3, §4

[6] = tested on: Escherichia coli NCTC 8196; experiment: MIC of a broadened organism spectrum (agar); format: cell-based; conditions: for MIC: NCTC8196, 24 hours at 37° C., read-out: minimum inhibiting concentration MIC
Source text: as §1, §2, §3, §4

[7] = tested on: Klebsiella pneumoniae ATCC 4352; experiment: MIC of a broadened organism spectrum (agar); format: cell-based; conditions: for MIC: ATCC4352, 24 hours at 37° C., read-out: minimum inhibiting concentration MIC
Source text: as §1, §2, §3, §4

[8] = tested on: Propionibacterium acnes ATCC 6919; experiment: MIC of a broadened organism spectrum (agar); format: cell-based; conditions: 3 days incubation under anaerobic conditions; for MIC: Cutibacterium acnes, ATCC6919, 72 h, read-out: minimum inhibiting concentration MIC
Source text: as §1, §2, §3, §4

[9] = tested on: Proteus vulgaris ATCC 6896; experiment: MIC of a broadened organism spectrum (agar); format: cell-based; conditions: for MIC: ATCC6896, 24 hours at 37° C., read-out: minimum inhibiting concentration MIC
Source text: as §1, §2, §3, §4

[10] = tested on: Pseudomonas aeruginosa ATCC 15442; experiment: MIC of a broadened organism spectrum (agar); format: cell-based; conditions: for MIC: ATCC15442, 24 hours at 37° C., read-out: minimum inhibiting concentration MIC
Source text: as §1, §2, §3, §4

[11] = tested on: Salmonella choleraesuis ATCC 9184; experiment: MIC of a broadened organism spectrum (agar); format: cell-based; conditions: 24 hours at 37° C.; for MIC: Salmonella enterica, read-out: minimum inhibiting concentration MIC
Source text: as §1, §2, §3, §4

[12] = tested on: Staphylococcus aureus ATCC 6538; experiment: MIC of a broadened organism spectrum (agar); format: cell-based; conditions: for MIC: ATCC6538, 24 hours at 37° C., read-out: minimum inhibiting concentration MIC
Source text: as §1, §2, §3, §4

[13] = tested on: Staphylococcus aureus ATCC 9144; experiment: MIC of a broadened organism spectrum (agar); format: cell-based; conditions: for MIC: ATCC9144, 24 hours at 37° C., read-out: minimum inhibiting concentration MIC
Source text: as §1, §2, §3, §4

[14] = tested on: Staphylococcus epidermidis ATCC 12228; experiment: MIC of a broadened organism spectrum (agar); format: cell-based; conditions: for MIC: ATCC12228, 24 hours at 37° C., read-out: minimum inhibiting concentration MIC
Source text: as §1, §2, §3, §4

[15] = tested on: S. gordonii ATCC 10558; experiment: MIC of a broadened organism spectrum: oral organisms; format: cell-based, Streptococcus gordonil; conditions: for MIC: Streptococcus gordonii, ATCC10558, 24 hours aerobic with 10% CO2, read-out: minimum inhibiting concentration MIC, oral organisms
Source text: (§5) Determination of the Minimum Inhibiting Concentration MIC (ppm) of a Broadened Organism Spectrum: Oral Organisms
(§6) • Medium: thioglycolate bouillon with hemin and menadione Columbia bouillon with hemin and menadione for P. gingivalis and P. nigrescens • Dilution medium: the appropriate amount of the substances was pipetted directly into the medium. • Test organisms: Actinobacillus actinomycetemcomitans ATCC 43718 • Streptococcus gordonil ATCC 10558 • Streptococcus mutans ATCC 33402 • Actinomyces viscosus ATCC 43146 • Fusobacterium nucleatum subsp. polymorphum ATCC 10953 • Porphyromonas gingivalis ATCC 33277 • Prevotella nigrescens ATCC 33563 • Incubation: 7-10 days at 37° C anaerobic, or 24 hours aerobic with 10% CO2 for Streptococci and A. actinomycetemcomitans • Test solution: Stock solutions of all the test substances in ethanol at 1500 ppm (w/w) are used. Test Principle:
(§7) Bacteria are removed from blood agar plates using cotton wool buds and a suitable optical density (McFarland 0.5) is adjusted in an appropriate medium; that solution is used undiluted for F. nucleatum and P. nigrescens, and in a dilution of 1:20 for the other strains. 0.1 ml of bacterial culture is added per 2 ml of active ingredient solution and incubation is carried out as described above.

[16] = tested on: Actinobacillus actinomycetemcomitans ATCC 43718; experiment: as above; format: cell-based; conditions: A. actinomycetemcomitans ATCC 43718, 24 hours aerobic with 10% CO2; for MIC: Aggregatibacter actinomycetemcomitans, ATCC43718, read-out: minimum inhibiting concentration MIC, oral organisms
Source text: as §5, §6, §7

[17] = tested on: Actinomyces viscosus ATCC 43146; experiment: as above; format: cell-based; conditions: A. viscosus ATCC 43146, 7-10 days at 37° C anaerobic; for MIC: Actinomyces viscosus, ATCC43146, read-out: minimum inhibiting concentration MIC, oral organisms
Source text: as §5, §6, §7

[18] = tested on: Fusobacterium nucleatum subsp. polymorphum ATCC 10953; experiment: as above; format: cell-based; conditions: F. nucleatum subsp. polymorphum ATCC 10953, 7-10 days at 37° C anaerobic; for MIC: Fusobacterium nucleatum, ATCC10953, read-out: minimum inhibiting concentration MIC, oral organisms
Source text: as §5, §6, §7

[19] = tested on: Prevotella nigrescens ATCC 33563; experiment: as above; format: cell-based; conditions: P. nigrescens ATCC 33563, Columbia bouillon, 7-10 days at 37° C anaerobic; for MIC: Prevotella nigrescens, ATCC33563, read-out: minimum inhibiting concentration MIC, oral organisms
Source text: as §5, §6, §7

[20] = tested on: Streptococcus mutans ATCC 33402; experiment: as above; format: cell-based; conditions: S. mutans ATCC 33402, 24 hours aerobic with 10% CO2; for MIC: Streptococcus mutans, ATCC33402, read-out: minimum inhibiting concentration MIC, oral organisms
Source text: as §5, §6, §7

[21] = tested on: P. gingivalis ATCC 3277; experiment: as above; format: cell-based, Porphyromonas gingivalis; conditions: 7-10 days at 37° C anaerobic; for MIC: Porphyromonas gingivalis, ATCC3277, Columbia bouillon, read-out: minimum inhibiting concentration MIC, oral organisms
Source text: as §5, §6, §7

Cc1cc(NCCc2ccccc2)nc(NCCc2ccccc2)n1 [PY9, N,N′-Bis(2,4-diphenylethylamino)-6-methylpyrimidine]
MIC [1]: 250 µg/mL
MIC [2]: 3.9 µg/mL
MIC [3]: 1.95 µg/mL
MIC [4]: 62.5 µg/mL
MIC [5]: 250 µg/mL
MIC [6]: 15.6 µg/mL
MIC [7]: 7.8 µg/mL
MIC [8]: 7.8 µg/mL
MIC [9]: > 500 µg/mL
MIC [10]: > 500 µg/mL
MIC [11]: 250 µg/mL
MIC [12]: 7.8 µg/mL
MIC [13]: 7.8 µg/mL
MIC [14]: 7.8 µg/mL
MIC [15]: 15 µg/mL
MIC [16]: > 15 µg/mL
MIC [17]: 3.75 µg/mL
MIC [18]: 15 µg/mL
MIC [19]: 7.5 µg/mL
MIC [20]: 15 µg/mL
MIC [21]: 7.5 µg/mL

Cc1cc(NCc2ccccc2)nc(NCc2ccccc2)n1 [PY8, N,N′-Bis(2,4-dibenzylamino)-6-methylpyrimidine]
MIC [1]: 250 µg/mL
MIC [2]: 15.6 µg/mL
MIC [3]: 7.8 µg/mL
MIC [4]: 250 µg/mL
MIC [5]: 62.5 µg/mL
MIC [6]: 31.2 µg/mL
MIC [7]: 15.6 µg/mL
MIC [8]: 31.2 µg/mL
MIC [9]: > 500 µg/mL
MIC [10]: > 500 µg/mL
MIC [11]: 62.5 µg/mL
MIC [12]: 31.2 µg/mL
MIC [13]: 31.2 µg/mL
MIC [14]: 31.2 µg/mL
MIC [15]: > 15 µg/mL
MIC [16]: > 15 µg/mL
MIC [17]: 3.75 µg/mL
MIC [18]: 15 µg/mL
MIC [19]: 15 µg/mL
MIC [20]: > 15 µg/mL
MIC [21]: 15 µg/mL

CCCCCCCCNc1cc(C)nc(NCCCCCCCC)n1 [PY5, N,N′-bis(2,4-dioctylamino)-6-methylpyrimidine]
minimum inhibiting concentration MIC [1]: >1000 ppm
minimum inhibiting concentration MIC [2]: 3.91 ppm
minimum inhibiting concentration MIC [3]: 7.81 ppm
minimum inhibiting concentration MIC [4]: >1000 ppm
minimum inhibiting concentration MIC ([5]; 24 hours at 37° C.): >1000 ppm
minimum inhibiting concentration MIC ([6]; 24 hours at 37° C.): >1000 ppm
minimum inhibiting concentration MIC ([7]; 24 hours at 37° C.): 250 ppm
minimum inhibiting concentration MIC [8]: 3.91 ppm
minimum inhibiting concentration MIC ([9]; 24 hours at 37° C.): >1000 ppm
minimum inhibiting concentration MIC ([10]; 24 hours at 37° C.): >1000 ppm
minimum inhibiting concentration MIC [11]: >1000 ppm
minimum inhibiting concentration MIC ([12]; 24 hours at 37° C.): 3.91 ppm
minimum inhibiting concentration MIC ([13]; 24 hours at 37° C.): 3.91 ppm
minimum inhibiting concentration MIC ([14]; 24 hours at 37° C.): 3.91 ppm
minimum inhibiting concentration MIC, oral organisms ([15]; 24 hours aerobic with 10% CO2): 15 ppm
minimum inhibiting concentration MIC, oral organisms [16]: >15 ppm
minimum inhibiting concentration MIC, oral organisms [17]: 3.75 ppm
minimum inhibiting concentration MIC, oral organisms [18]: >15 ppm
minimum inhibiting concentration MIC, oral organisms [19]: 15 ppm
minimum inhibiting concentration MIC, oral organisms [20]: 3.75 ppm
minimum inhibiting concentration MIC, oral organisms ([21]; Columbia bouillon): 7.5 ppm

CCCCCCCCNc1nc(C)cc(N2CCCC2)n1 [PY44]
MIC [1]: 500 µg/mL
MIC [2]: 3.9 µg/mL
MIC [3]: 3.9 µg/mL
MIC [4]: 250 µg/mL
MIC [5]: 62.5 µg/mL
MIC [6]: 15.6 µg/mL
MIC [7]: 7.8 µg/mL
MIC [8]: 3.9 µg/mL
MIC [9]: > 500 µg/mL
MIC [10]: > 500 µg/mL
MIC [11]: 62.5 µg/mL
MIC [12]: 7.8 µg/mL
MIC [13]: 7.8 µg/mL
MIC [14]: 3.9 µg/mL
MIC [15]: 7.5 µg/mL
MIC [16]: > 15 µg/mL
MIC [17]: 3.8 µg/mL
MIC [18]: 3.8 µg/mL
MIC [19]: 3.8 µg/mL
MIC [20]: 7.5 µg/mL
MIC [21]: 3.8 µg/mL

CCCCCCCCNc1nc(C)c(CCCCCC)c(NCCOCCOCCN)n1 [PY55]
MIC [1]: 500 µg/mL
MIC [2]: 3.9 µg/mL
MIC [3]: 3.9 µg/mL
MIC [4]: 125 µg/mL
MIC [5]: 7.8 µg/mL
MIC [6]: 7.8 µg/mL
MIC [7]: 15.6 µg/mL
MIC [8]: 3.9 µg/mL
MIC [9]: > 500 µg/mL
MIC [10]: > 500 µg/mL
MIC [11]: 7.8 µg/mL
MIC [12]: 7.8 µg/mL
MIC [13]: 3.9 µg/mL
MIC [14]: 7.8 µg/mL
MIC [15]: 3.8 µg/mL
MIC [16]: 15 µg/mL
MIC [17]: 3.8 µg/mL
MIC [18]: 7.5 µg/mL
MIC [19]: 3.8 µg/mL
MIC [20]: 7.5 µg/mL
MIC [21]: 3.8 µg/mL
